# Target: T1, dopamine D3 receptor (Homo sapiens, UniProt P35462)
# T1 construct: expressed in transfected cells; membrane preparation
# Assay: GTPγS scintillation proximity assay (GTPγS-SPA), antagonist format, CHO_D3 membranes
# Type: biochemical
# Conditions: difference in functional pKi at D3 versus the opposite enantiomer of the same Example
# Experimental: Functional potency and intrinsic activity of compounds of this invention can be measured by the following GTPγS scintillation proximity assay (GTPγS-SPA). Cells used in the study are Chinese Hamster Ovary (CHO) Cells.
# Cell membranes are prepared as follows. Cell pellets are resuspended in 10 volumes of 50 mM HEPES, 1 mM EDTA pH 7.4, using KOH. On the day the following proteases are added to the buffer just prior to giving the homogenisation buffer. 10^−6M Leupeptin(Sigma L2884)−5000×stock=5 mg/ml in buffer 25 ug/ml Bacitracin(Sigma B0125)−1000×stock=25 mg/ml in buffer 1 mM PMSF−1000×stock=17 mg/ml in 100% ethanol 2×10^−6M Pepstain A−1000×stock=2 mM in 100% DMSO
# The cells are homogenised by 2×15 second bursts in a 1 litre Glass Waring blender in a class two biohazard cabinet. The resulting suspension is spun at 500 g for 20 mins (Beckman T21 centrifuge: 1550 rpm). The supernatant is withdrawn with a 25 ml pipette, aliquotted into pre-chilled centrifuge tubes and spun at 48,000 g to pellet membrane fragments (Beckman T1270: 23,000 rpm for 30 mins). The final 48,000 g pellet is resuspended in Homogenisation Buffer, (4× the volume of the original cell pellet). The 48,000 g pellet is resuspended by vortexing for 5 seconds and homogenized in a dounce homogenizer 10-15 stokes. The prep is distributed into appropriate sized aliquots, (200-1000 ul), in polypropylene tubes and store at −80° C. Protein content in the membrane preparations is evaluated with the Bradford protein assay.
# The final top concentration of test drug is 3 uM in the assay and 11 points serial dilution curves 1:4 in 100% DMSO are carried out using a Biomek FX. The test drug at 1% total assay volume (TAV) is added to a solid, white, 384 well assay plate. 50% TAV of precoupled (for 90 mins at 4° C.) membranes, 5 μg/well, and Wheatgerm Agglutinin Polystyrene Scintillation Proximity Assay beads (RPNQ0260, Amersham), 0.25 mg/well, in 20 mM HEPES pH 7.4, 100 mM NaCl, 10 mM MgCl2, 60 μg/ml saponin and 30 μM GDP is added. The third addition was a 20% TAV addition of either buffer, (agonist format) or EC80 final assay concentration of agonist, Quinelorane, prepared in assay buffer (antagonist format). The assay was started by the addition of 29% TAV of GTPγ[^35S] 0.38 nM final (37 MBq/ml, 1160 Ci/mmol, Amersham). After all additions assay plates are spun down for 1 min at 1,000 rpm. Assay plates are counted on a Viewlux, 613/55 filter, for 5 min., between 2-6 hours after the final addition.
# The effect of the test drug over the basal generates EC50 value by an iterative least squares curve fitting programme, expressed in the table as pEC50 (i.e. −log EC50). The ratio between the maximal effect of the test drug and the maximal effect of full agonist, Quinelorane, generates the Intrinsic Activity (IA) value (i.e. IA=1 full agonist, IA<1 partial agonist). fpKi values of test drug are calculated from the IC50 generated by “antagonist format” experiment, using Cheng & Prusoff equation: fKi=IC50/1+([A]/EC50) where: [A] is the concentration of the agonist […] in the assay and EC50 is the 5-HT EC50 value obtained in the same experiment. fpKi is defined as −log fKi.
# T1 sequence (P35462 whole entry): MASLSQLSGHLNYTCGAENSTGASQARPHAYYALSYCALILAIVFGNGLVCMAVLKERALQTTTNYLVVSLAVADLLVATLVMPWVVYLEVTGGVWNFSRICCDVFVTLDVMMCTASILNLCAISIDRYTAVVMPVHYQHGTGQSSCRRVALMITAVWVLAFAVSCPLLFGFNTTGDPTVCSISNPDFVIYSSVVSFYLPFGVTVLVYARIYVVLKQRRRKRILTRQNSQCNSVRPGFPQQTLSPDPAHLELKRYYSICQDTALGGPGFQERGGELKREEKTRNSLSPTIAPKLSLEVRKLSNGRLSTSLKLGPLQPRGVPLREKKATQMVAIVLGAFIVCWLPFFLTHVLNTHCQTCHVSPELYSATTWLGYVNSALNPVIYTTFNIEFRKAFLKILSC
row,Compound,fpKi (D3) higher than the other Enantiomer
1,"COc1ccc([C@]23C[C@H]2CN(CCCSc2nnc(-c4cccc5nc(C)ccc45)n2C)C3)cc1 (single isomer, unassigned) [Example 1 Enantiomer 1]",> 1 log-unit
2,"Cc1ccc2c(-c3nnc(SCCCN4C[C@@H]5C[C@]5(c5ccc(Br)cc5)C4)n3C)cccc2n1 (single isomer, unassigned) [Example 2 Enantiomer 2]",> 1 log-unit
3,"Cc1ccc2c(-c3nnc(SCCCN4C[C@@H]5C[C@]5(c5ccccc5)C4)n3C)cccc2n1 (single isomer, unassigned) [Example 3 Enantiomer 2]",> 1 log-unit
4,"Cc1ccc2c(-c3nnc(SCCCN4C[C@@H]5C[C@]5(c5ccc(Cl)c(Cl)c5)C4)n3C)cccc2n1 (single isomer, unassigned) [Example 4 Enantiomer 1]",> 0.6 log-unit
5,"Cc1ccc2c(-c3nnc(SCCCN4C[C@@H]5C[C@]5(c5ccc(C(C)(C)C)cc5)C4)n3C)cccc2n1 (single isomer, unassigned) [Example 5 Enantiomer 2]",> 0.9 log-unit
6,"Cc1ncoc1-c1nnc(SCCCN2C[C@@H]3C[C@]3(c3ccc(Br)cc3)C2)n1C (single isomer, unassigned) [Example 9 Enantiomer 1]",> 1 log-unit
7,"Cc1ncoc1-c1nnc(SCCCN2C[C@@H]3C[C@]3(c3ccc(C(F)(F)F)cc3F)C2)n1C.Cl (single isomer, unassigned) [Example 16 Enantiomer 2]",> 1 log-unit
8,"Cc1ncoc1-c1nnc(SCCCN2C[C@@H]3C[C@]3(c3cccc(C(F)(F)F)c3)C2)n1C (single isomer, unassigned) [Example 17 Enantiomer 1]",> 1 log-unit
9,"COc1ccc([C@]23C[C@H]2CN(CCCSc2nnc(-c4ocnc4C)n2C)C3)cc1C(C)=O (single isomer, unassigned) [Example 19 Enantiomer 1]",> 1 log-unit
10,"Cc1ncoc1-c1nnc(SCCCN2C[C@@H]3C[C@]3(c3ccc(Cl)cc3)C2)n1C (single isomer, unassigned) [Example 20 Enantiomer 1]",> 1 log-unit
11,"Cc1ncoc1-c1nnc(SCCCN2C[C@@H]3C[C@]3(c3ccc(F)cc3)C2)n1C (single isomer, unassigned) [Example 21 Enantiomer 1]",> 1 log-unit
12,"Cc1ncoc1-c1nnc(SCCCN2C[C@]3(C)C[C@@]3(c3cccc(Cl)c3)C2)n1C (single isomer, unassigned) [Example 22 Enantiomer 1]",> 1 log-unit
13,"Cc1ncoc1-c1nnc(SCCCN2C[C@@H]3C[C@]3(c3cccc(F)c3)C2)n1C (single isomer, unassigned) [Example 23 Enantiomer 1]",> 1 log-unit
14,"COc1cccc([C@]23C[C@H]2CN(CCCSc2nnc(-c4ocnc4C)n2C)C3)c1 (single isomer, unassigned) [Example 24 Enantiomer 1]",> 1 log-unit
15,"Cc1ncoc1-c1nnc(SCCCN2C[C@@H]3C[C@]3(c3ccc(OC(F)(F)F)cc3)C2)n1C (single isomer, unassigned) [Example 30 Enantiomer 1]",> 1 log-unit
16,"Cc1ncoc1-c1nnc(SCCCN2C[C@@H]3C[C@]3(c3cc(C(F)(F)F)ccc3F)C2)n1C (single isomer, unassigned) [Example 36 Enantiomer 2]",> 1 log-unit
17,"CCC(=O)c1cc([C@]23C[C@H]2CN(CCCSc2nnc(-c4ocnc4C)n2C)C3)ccc1OC (single isomer, unassigned) [Example 71 Enantiomer 1]",> 1 log-unit
18,"Cc1nc2cc([C@]34C[C@H]3CN(CCCSc3nnc(-c5ocnc5C)n3C)C4)ccc2s1 (single isomer, unassigned) [Example 72 Enantiomer 1]",> 1 log-unit
19,"Cc1ncoc1-c1nnc(SCCCN2C[C@@H]3C[C@]3(c3ccc4c(cnn4C)c3)C2)n1C (single isomer, unassigned) [Example 74 Enantiomer 1]",> 1 log-unit
20,"Cc1ncoc1-c1nnc(SCCCN2C[C@@H]3C[C@]3(c3ccc(C(F)(F)F)cn3)C2)n1C (single isomer, unassigned) [Example 96 Enantiomer 2]",> 1 log-unit
21,"Cc1ccc2c(-c3nnc(SCCCN4CC5CC5(c5ccc(Cl)cc5)C4)n3C)cccc2n1 (single isomer, unassigned; enantiomer 1) [Example 29 Enantiomer 1]",> 1 log-unit
22,"Cc1ncoc1-c1nnc(SCCCN2C[C@@H]3C[C@]3(c3cc(F)cc(C(F)(F)F)c3)C2)n1C (single isomer, unassigned; enantiomer 1) [Example 110 Enantiomer 1]",> 1 log-unit
23,"Cc1ncoc1-c1nnc(SCCCN2C[C@@H]3C[C@]3(c3cccc(C(F)(F)F)c3F)C2)n1C (single isomer, unassigned; enantiomer 2) [Example 111 Enantiomer 2]",> 1 log-unit

# From patent publication US8283474B2, “Azabicyclo (3.1.0) hexane derivatives useful as modulators of dopamine D3 receptors” (Glaxo Group Limited, priority 2004, dated 2012)
